Source: article PMC9490236, “Accurate de novo design of membrane-traversing macrocycles” (Cell, 2022)
“And” between values parts separate entries of the source, which are not always exact repeats. Identical values can stand only once. Like-named read-outs stand apart in the source and are kept apart here. Where a SMILES comes first, the peptide text is derived from it. [ ]: non-standard residue; d: D form. NMeL = CN[C@@H](CC(C)C)C(=O)O; dNMeL = CN[C@H](CC(C)C)C(=O)O; Sar = CNCC(=O)O

Legend:
[1] = Parallel artificial membrane permeability assay (PAMPA); details: average of replicates R1-R3; BQL = no significant peak detected for the peptide in the acceptor wells
[2] = Pharmacokinetics and oral bioavailability of D11.2 in male SD rats (IV, PO, SQ); type: in vivo; details: for half-life: read-out: T1/2z (converted); for MRT inf: in vivo
Description: In vivo bioavailability assays were conducted in mice and rats. D8.3.p1 and D10.1 were studied in female Balb/C mice by van Voorhis group at University of Washington. D11.2 was evaluated in Sprague Dawley (SD) rats by Robert Griffin’s group at Takeda Pharmaceuticals. D11.3 was studied in the male swiss albino mice by the contract research organization, GVK Biosciences Pvt. Ltd., Hyderabad, India. All animals used in these studies were handled in strict accordance with practices made to minimize suffering. All animal experiments conducted at the University of Washington, USA, and Takeda Pharmaceuticals, USA were approved by the Institutional Animal Care and Use Committee. Animal studies at GVK Biosciences were reviewed and approved by the Institutional Animal Ethics Committee of GVK Biosciences.
We selected four designed macrocycles with diverse structures and in vitro rates of permeability for in vivo oral bioavailability studies in the rodent models. Due to the intensive resource requirements for such studies, these studies were conducted by three different research groups. D8.3.p1 and D10.1 were studied in female Balb/C mice by van Voorhis group at University of Washington. D11.2 was evaluated in Sprague Dawley (SD) rats by Robert Griffin’s group at Takeda Pharmaceuticals. D11.3 was studied in the male swiss albino mice by the contract research organization, GVK Biosciences Pvt. Ltd., Hyderabad, India.
We evaluated the pharmacokinetic properties for D11.2 in male SD rats (n=3). D11.2 was dissolved in 2% DMSO/0.1% Tween80 and dosed by IV, PO, and SQ routes. Plasma samples were collected at multiple time points up to 24 hours. The quantification limit was established to be 2 ng/mL for the assay conditions tested. Pharmacokinetic parameters were modeled using the Phoenix WinNonlin software package.
Dosing vehicle: DMSO (2%) + 0.1% Tween80(IV, PO, SQ)
Dose: 1 mg/kg (PO, SQ, IV) • Sampling times: 0.083, 0.25, 0.5, 1, 2, 4, 6, 8, 24 h (PO, SQ, IV)

[3] = IV 1 mg/kg, individual rats R1, R2, R3, 1 mg/kg
[4] = PO 1 mg/kg, individual rats R4, R5, R6, 1 mg/kg
[5] = SQ 1 mg/kg, individual rats R7, R8, R9
[6] = male, Sprague Dawley, rat, plasma, iv, 1 mg/kg, IV 1 mg/kg, Mean
[7] = male, Sprague Dawley, rat, plasma, iv, 1 mg/kg, IV 1 mg/kg, individual rats R1, R2, R3
[8] = male, Sprague Dawley, rat, plasma, po, 1 mg/kg, PO 1 mg/kg, Mean
[9] = male, Sprague Dawley, rat, plasma, po, 1 mg/kg, PO 1 mg/kg, individual rats R4, R5, R6
[10] = male, Sprague-Dawley, rat, plasma, subcutaneous, 1 mg/kg, SQ 1 mg/kg, Mean
[11] = male, Sprague-Dawley, rat, plasma, subcutaneous, 1 mg/kg, SQ 1 mg/kg, individual rats R7, R8, R9

CC[C@@H](C)[C@H]1NC(=O)[C@@H](CC(C)C)NC(=O)[C@@H](CC(C)C)N(C)C(=O)[C@@H]2CCCN2C(=O)[C@@H](C(C)C)NC(=O)[C@H](CC(C)C)NC(=O)[C@@H](CC(C)C)N(C)C(=O)[C@@H]2CCCN2C1=O [Design D8.3.p1, DLEU DVAL PRO *DLEU DLEU DILE PRO *DLEU] (cyclo(L[dV]P[dNMeL][dL][dI]P[dNMeL]))
PAMPA_Papp_Avg [1]: 4.61E-06

CC[C@@H](C)[C@H]1NC(=O)[C@@H]2CCCN2C(=O)[C@@H]([C@H](C)CC)NC(=O)CN(C)C(=O)[C@H](CC(C)C)NC(=O)[C@@H](Cc2ccccc2)NC(=O)[C@H](CC(C)C)N(C)C(=O)[C@H]2CCCN2C(=O)[C@@H](CC(C)C)NC(=O)[C@H](CC(C)C)NC(=O)[C@H]2CCCN2C1=O [Design D11.2, DILE DPRO LEU DLEU DPRO *LEU DPHE LEU *GLY DILE PRO] (cyclo(L[Sar][dI]P[dI][dP]L[dL][dP][NMeL][dF]))
AUClast [2, 3]: 0.702 µg·h/mL and 0.858 µg·h/mL | AUC∞ [2, 3]: 0.738 µg·h/mL and 0.926 µg·h/mL | C0 [2, 3]: 0.669 µg/mL and 1.234 µg/mL | CL [2, 3]: 1.35 L/h/kg and 1.08 L/h/kg | Cmax [2, 3]: 0.796 µg/mL and 0.499 µg/mL | MRT∞ [2, 3]: 2.34 h and 2.51 h | T1/2z [2, 3]: 2.05 h and 2.74 h | Vss [2, 3]: 3.17 L/kg and 2.72 L/kg | Vz [2, 3]: 4.00 L/kg and 4.27 L/kg | %F [2, 4]: 13.0% and 8.18% | AUClast [2, 4]: 0.0893 µg·h/mL and 0.0591 µg·h/mL | AUC∞ [2, 4]: 0.0959 µg·h/mL and 0.0758 µg·h/mL | Cmax [2, 4]: 0.0352 µg/mL and 0.0282 µg/mL | MRT∞ [2, 4]: 3.02 h and 3.86 h | T1/2z [2, 4]: 2.06 h and 2.53 h | Tmax [2, 4]: 0.250 h | %F [2, 5]: 160% and 105% | AUClast [2, 5]: 0.741 µg·h/mL and 0.841 µg·h/mL | AUC∞ [2, 5]: 0.777 µg·h/mL and 0.853 µg·h/mL | Cmax [2, 5]: 0.0994 µg/mL and 0.0951 µg/mL | MRT∞ [2, 5]: 7.64 h and 6.14 h | T1/2z [2, 5]: 5.00 h and 3.71 h | AUC(0-inf) [2, 6]: 0.78 µg·h/mL | AUC(0-t) [2, 6]: 0.734 µg·h/mL | clearance [2, 6]: 1.31 L/h/kg | C0 ([2]; male, Sprague Dawley, rat, plasma, iv, 1 mg/kg, IV 1 mg/kg, Mean, read-out: C0): 0.843 µg/mL | Cmax ([2]; male, Sprague Dawley, rat, plasma, iv, 1 mg/kg, IV 1 mg/kg, Mean, read-out: Cmax): 0.605 µg/mL | half-life [2, 6]: 2.29 h | Tmax ([2]; male, Sprague Dawley, rat, plasma, iv, 1 mg/kg, IV 1 mg/kg, Mean, read-out: Tmax): 0.0833 h | Vd ([2]; male, Sprague Dawley, rat, plasma, iv, 1 mg/kg, IV 1 mg/kg, Mean, read-out: Vss): 3.04 L/kg | Vd ([2]; male, Sprague Dawley, rat, plasma, iv, 1 mg/kg, IV 1 mg/kg, Mean, read-out: Vz): 4.24 L/kg | AUC(0-inf) [2, 7]: 0.674 µg·h/mL | AUC(0-t) [2, 7]: 0.642 µg·h/mL | clearance [2, 7]: 1.48 L/h/kg | C0 ([2]; male, Sprague Dawley, rat, plasma, iv, 1 mg/kg, IV 1 mg/kg, individual rats R1, R2, R3, read-out: C0): 0.626 µg/mL | Cmax ([2]; male, Sprague Dawley, rat, plasma, iv, 1 mg/kg, IV 1 mg/kg, individual rats R1, R2, R3, read-out: Cmax): 0.519 µg/mL | half-life [2, 7]: 2.08 h | Tmax ([2]; male, Sprague Dawley, rat, plasma, iv, 1 mg/kg, IV 1 mg/kg, individual rats R1, R2, R3, read-out: Tmax): 0.0833 h | Vd ([2]; male, Sprague Dawley, rat, plasma, iv, 1 mg/kg, IV 1 mg/kg, individual rats R1, R2, R3, read-out: Vss): 3.23 L/kg | Vd ([2]; male, Sprague Dawley, rat, plasma, iv, 1 mg/kg, IV 1 mg/kg, individual rats R1, R2, R3, read-out: Vz): 4.46 L/kg | AUC(0-inf) [2, 8]: 0.0843 µg·h/mL | AUC(0-t) [2, 8]: 0.0717 µg·h/mL | bioavailability [2, 8]: 11.1% | Cmax ([2]; male, Sprague Dawley, rat, plasma, po, 1 mg/kg, PO 1 mg/kg, Mean, read-out: Cmax): 0.0316 µg/mL | half-life [2, 8]: 2.33 h | Tmax ([2]; male, Sprague Dawley, rat, plasma, po, 1 mg/kg, PO 1 mg/kg, Mean, read-out: Tmax): 0.416 h | AUC(0-inf) [2, 9]: 0.0813 µg·h/mL | AUC(0-t) [2, 9]: 0.0668 µg·h/mL | bioavailability [2, 9]: 12.1% | Cmax ([2]; male, Sprague Dawley, rat, plasma, po, 1 mg/kg, PO 1 mg/kg, individual rats R4, R5, R6, read-out: Cmax): 0.0313 µg/mL | half-life [2, 9]: 2.42 h | Tmax ([2]; male, Sprague Dawley, rat, plasma, po, 1 mg/kg, PO 1 mg/kg, individual rats R4, R5, R6, read-out: Tmax): 0.5 h | Cmax ([2]; male, Sprague Dawley, rat, plasma, sc, 1 mg/kg, SQ 1 mg/kg, Mean, read-out: Cmax): 0.109 µg/mL | half-life ([2]; male, Sprague Dawley, rat, plasma, sc, 1 mg/kg, SQ 1 mg/kg, Mean): 4.41 h | Tmax ([2]; male, Sprague Dawley, rat, plasma, sc, 1 mg/kg, SQ 1 mg/kg, Mean, read-out: Tmax): 4 h | Cmax ([2]; male, Sprague Dawley, rat, plasma, subcutaneous, 1 mg/kg, SQ 1 mg/kg, individual rats R7, R8, R9, read-out: Cmax): 0.131 µg/mL | half-life ([2]; male, Sprague Dawley, rat, plasma, subcutaneous, 1 mg/kg, SQ 1 mg/kg, individual rats R7, R8, R9): 4.52 h | Tmax ([2]; male, Sprague Dawley, rat, plasma, subcutaneous, 1 mg/kg, SQ 1 mg/kg, individual rats R7, R8, R9, read-out: Tmax): 4 h | bioavailability ([2]; male, Sprague-Dawley, rat, plasma, sc, 1 mg/kg, SQ 1 mg/kg, individual rats R7, R8, R9): 92.1% | AUC(0-inf) [2, 10]: 0.903 µg·h/mL | AUC(0-t) [2, 10]: 0.874 µg·h/mL | bioavailability [2, 10]: 119% | AUC(0-inf) [2, 11]: 1.08 µg·h/mL | AUC(0-t) [2, 11]: 1.04 µg·h/mL | MRT inf ([2]; rat, 1 mg/kg, SQ 1 mg/kg, Mean): 6.86 h | MRT inf ([2]; rat, 1 mg/kg, SQ 1 mg/kg, individual rats R7, R8, R9): 6.81 h | MRT inf ([2]; rat, iv, 1 mg/kg, IV 1 mg/kg, Mean): 2.35 h | MRT inf ([2]; rat, iv, 1 mg/kg, IV 1 mg/kg, individual rats R1, R2, R3): 2.18 h | MRT inf ([2]; rat, po, 1 mg/kg, PO 1 mg/kg, Mean): 3.42 h | MRT inf ([2]; rat, po, 1 mg/kg, PO 1 mg/kg, individual rats R4, R5, R6): 3.38 h
